The text below walks through data of US8796253B2, “Heteroaryl substituted pyrazole derivatives useful for treating hyper-proliferative disorders and diseases associated with angiogenesis” (Bayer Intellectual Property GmbH, priority 2007, dated 2014).

The structures appear in SMILES notation. Where only a bound is given, the exact number is not on record here.

In general, IC50 refers to the point on the concentration scale where inhibition reaches its midpoint. A lower IC50 goes with inhibition by little substance.

The first assay relates to HCT-116 cells stably transfected with a Luciferase reporter gene under the control of HIF-responsive element. As to the kind of experiment: HIF-Luciferase Assay. The assay is classed as cell-based. The settings on record: Homo sapiens, HCT-116, HIF-Luciferase Assay, HCT-116 reporter cells, overnight at 1% oxygen; group >10, unit inferred. The protocol: HCT-116 cells stably transfected with a Luciferase reporter gene under the control of HIF-responsive element were plated in white 96- or 384-well plates at 30,000 or 5,000 cells/well, respectively, in 50 μL/well media (RPMI with 10% fetal bovine serum and 100 μg/mL Hygromycin). Cells were incubated overnight at 37° C. in a humidified incubator containing 5% CO2 under normal oxygen. The next day test compounds were added to the wells at various concentrations (0-10 μM, 0.1% final DMSO concentration) and placed in a hypoxic chamber overnight at 1% oxygen. Following the exposure to hypoxic conditions, 50 μL/well of Bright Glo reagent (Promega, Wisconsin, USA) was added to the wells and luminescence was measured after 5 min. Cells incubated under normal oxygen levels were used as background control. […] Compounds that have IC50 values between 1 μM and 10 μM include those of Examples 8, 16, 38, 39, 40, 41, 42, 43, 47, 48, 53, 54, 56, 57, 66, 69, and 72.
As to `Cc1ccc(Cn2nc(C3=NC(c4ccc(C(C)(C)C)cc4)CO3)cc2C)cc1` (stereo not shown) [Example 70, 4-(4-tert-butylphenyl)-2-[5-methyl-1-(4-methylbenzyl)-1H-pyrazol-3-yl]-4,5-dihydro-1,3-oxazole], the IC50 is > 10000 nM.
For the molecule `Cc1ccc(Cn2nc(-c3nc4ccc(N5CCN(C)CC5)cc4[nH]3)cc2C)cc1` [Example 50, 2-[5-methyl-1-(4-methylbenzyl)-1H-pyrazol-3-yl]-6-(4-methylpiperazin-1-yl)-1H-benzimidazole], the half-maximal inhibitory concentration (IC50) is > 10000 nM.
In the case of `Cc1ccc(Cn2nc(-c3nc(-c4ccc(F)c(Br)c4)no3)cc2C)cc1` [Example 15, 3-(3-bromo-4-fluorophenyl)-5-[5-methyl-1-(4-methylbenzyl)-1H-pyrazol-3-yl]-1,2,4-oxadiazole], the IC50 is > 10000 nM.

Still in this assay, the particulars now being: Homo sapiens, HCT-116, HIF-Luciferase Assay, HCT-116 reporter cells, overnight at 1% oxygen; individual values.
As to `Cc1ccc(Cn2nc(-c3nc(-c4ccc(Cn5cccc5)cc4)no3)cc2C)cc1` [Example 140, 5-[5-Methyl-1-(4-methylbenzyl)-1H-pyrazol-3-yl]-3-[4-(1H-pyrrol-1-yl-methyl)phenyl]-1,2,4-oxadiazole], the IC50 turned out to be 40 nM. This lies in the double-digit nanomolar range.
Take `Cc1cc(-c2nc(-c3ccc(OC(F)(F)F)cc3)no2)nn1Cc1ccc(Cl)cc1` [Example 120, 5-[1-(4-Chlorobenzyl)-5-methyl-1H-pyrazol-3-yl]-3-[4-(trifluoromethoxy)phenyl]-1,2,4-oxadiazole]: 20 nM corresponded to half-maximal inhibition (IC50).
As for `Cc1ccc(Cn2nc(-c3nc(-c4ccc(C5CCCCC5)cc4)co3)cc2C)cc1` [Example 81, 4-(4-Cyclohex-1-ylphenyl)-2-[5-methyl-1-(4-methylbenzyl)-1H-pyrazol-3-yl]-1,3-oxazole], half-maximal inhibition (IC50) was put at 50 nM.
The same measure, in the same setting: the result for `Cc1ccc(Cn2nc(-c3nc4ccc(-c5ccc(F)cc5)cc4[nH]3)cc2C)cc1` [Example 59, 6-(4-Fluorophenyl)-2-[5-methyl-1-(4-methylbenzyl)-1H-pyrazol-3-yl]-1H-benzimidazole] reads 5 nM.
Molecule `Cc1ccc(Cn2nc(-c3nc(-c4ccc(C5CCCCC5)cc4)c[nH]3)cc2C)cc1` [Example 68, 3-[4-(4-cyclohexylphenyl)-1H-imidazol-2-yl]-5-methyl-1-(4-methylbenzyl)-1H-pyrazole] had an IC50 of 6 nM.

Still in this assay, the particulars now being: Homo sapiens, HCT-116, HIF-Luciferase Assay, HCT-116 reporter cells, overnight at 1% oxygen; potency groups.
As for `Cc1ccc(Cn2nc(-c3nc4ccc(-c5cccc(F)c5)cc4[nH]3)cc2C)cc1` [Example 61, 6-(3-fluorophenyl)-2-[5-methyl-1-(4-methylbenzyl)-1H-pyrazol-3-yl]-1H-benzimidazole], the IC50 is ≤ 1000 nM.
On to `Cc1ccc(Cn2nc(-c3nc(-c4ccc(-c5ccc(Cl)cc5)cc4)co3)cc2C)cc1` [Example 76, 4-(4′-chlorobiphenyl-4-yl)-2-[5-methyl-1-(4-methylbenzyl)-1H-pyrazol-3-yl]-1,3-oxazole], for which the IC50 was ≤ 1000 nM.
Regarding `Cc1ccc(Cn2nc(-c3nc4ccc(-c5ccccc5)cc4[nH]3)cc2C)cc1` [Example 45, 2-[5-methyl-1-(4-methylbenzyl)-1H-pyrazol-3-yl]-6-phenyl-1H-benzimidazole], the IC50 was ≤ 1000 nM.
Regarding `Cc1ccc(Cn2nc(-c3nc4ccc(C(=O)c5ccccc5)cc4[nH]3)cc2C)cc1` [Example 46, {2-[5-methyl-1-(4-methylbenzyl)-1H-pyrazol-3-yl]-1H-benzimidazol-6-yl}(phenyl)methanone], the IC50 is ≤ 1000 nM.
For `Cc1ccc(Cn2nc(-c3nc(-c4ccc(N5CCCC(C)C5)cc4)no3)cc2C)cc1` (stereo not shown) [Example 6, 3-methyl-1-(4-{5-[5-methyl-1-(4-methylbenzyl)-1H-pyrazol-3-yl]-1,2,4-oxadiazol-3-yl}phenyl)piperidine], the IC50 was ≤ 1000 nM.
Same read-out and setting: the value for `Cc1ccc(Cn2nc(-c3nc4cc(Cl)c(F)cc4[nH]3)cc2C)cc1` [Example 56, 5-chloro-6-fluoro-2-[5-methyl-1-(4-methylbenzyl)-1H-pyrazol-3-yl]-1H-benzimidazole] was 1000 to 10000 nM; that for `Cc1ccc(Cn2nc(-c3nc(-c4ccc(C(F)(F)F)nc4)no3)cc2C)cc1` [Example 17, 5-{5-[5-methyl-1-(4-methylbenzyl)-1H-pyrazol-3-yl]-1,2,4-oxadiazol-3-yl}-2-(trifluoromethyl)pyridine] was ≤ 1000 nM; that for `Cc1ccc(Cn2nc(-c3nc(-c4ccc(N5CCOCC5)cc4)no3)cc2C)cc1` [Example 21, 4-(4-{5-[5-Methyl-1-(4-methylbenzyl)-1H-pyrazol-3-yl]-1,2,4-oxadiazol-3-yl}phenyl)morpholine] was ≤ 1000 nM.
The same measure, in the same setting: the result for `Cc1ccc(Cn2nc(-c3nc4ccc(-c5cccc(Cl)c5)cc4[nH]3)cc2C)cc1` [Example 63, 6-(3-chlorophenyl)-2-[5-methyl-1-(4-methylbenzyl)-1H-pyrazol-3-yl]-1H-benzimidazole] reads ≤ 1000 nM; that for `Cc1ccc(Cn2nc(-c3nc4cc5oc6ccccc6c5cc4[nH]3)cc2C)cc1` [Example 52, 2-[5-methyl-1-(4-methylbenzyl)-1H-pyrazol-3-yl]-1H-[1]benzofuro[2,3-f]benzimidazole], ≤ 1000 nM.
With `Cc1ccc(Cn2nc(-c3nc(-c4cccnc4)no3)cc2C)cc1` [Example 16, 3-{5-[5-methyl-1-(4-methylbenzyl)-1H-pyrazol-3-yl]-1,2,4-oxadiazol-3-yl}pyridine], the IC50 lay within 1000 to 10000 nM.
Consider `Cc1ccc(Cn2nc(-c3nc4cc5ccccc5cc4[nH]3)cc2C)cc1` [Example 47, 2-[5-methyl-1-(4-methylbenzyl)-1H-pyrazol-3-yl]-1H-naphtho[2,3-d]imidazole], for which the IC50 is 1000 to 10000 nM.
`Cc1ccc(Cn2nc(-c3nc4c(C)cccc4[nH]3)cc2C)cc1` [Example 40, 4-methyl-2-[5-methyl-1-(4-methylbenzyl)-1H-pyrazol-3-yl]-1H-benzimidazole] showed an IC50 of 1000 to 10000 nM.
On the same count and under the same terms, the result for `Cc1ccc(Cn2nc(-c3nc4ccc(-c5ccc(F)cc5)cc4[nH]3)cc2C)cc1` [Example 59, 6-(4-Fluorophenyl)-2-[5-methyl-1-(4-methylbenzyl)-1H-pyrazol-3-yl]-1H-benzimidazole] reads ≤ 1000 nM; that for `Cc1ccc(Cn2nc(-c3nc4cc(-c5ccccc5F)ccc4o3)cc2C)cc1` [Example 35, 5-(2-fluorophenyl)-2-[5-methyl-1-(4-methylbenzyl)-1H-pyrazol-3-yl]-1,3-benzoxazole], ≤ 1000 nM.
As to `Cc1ccc(Cn2nc(-c3nc(-c4ccccc4)co3)cc2C)cc1` [Example 74, 2-[5-Methyl-1-(4-methylbenzyl)-1H-pyrazol-3-yl]-4-phenyl-1,3-oxazole], the IC50 is ≤ 1000 nM.
Same read-out and setting: the value for `Cc1ccc(Cn2nc(-c3nc4ccc(-c5ccccc5F)cc4[nH]3)cc2C)cc1` [Example 60, 6-(2-fluorophenyl)-2-[5-methyl-1-(4-methylbenzyl)-1H-pyrazol-3-yl]-1H-benzimidazole] was ≤ 1000 nM.
`Cc1ccc(Cn2nc(C3=NC(c4ccccc4)CO3)cc2C)cc1` (stereo not shown) [Example 69, 2-[5-Methyl-1-(4-methylbenzyl)-1H-pyrazol-3-yl]-4-phenyl-4,5-dihydro-1,3-oxazole] came in with an IC50 of 1000 to 10000 nM.
The same measure, in the same setting: the result for `Cc1ccc(Cn2nc(-c3nc(-c4ccc(OCc5ccc(Cl)cc5)cc4)no3)cc2C)cc1` [Example 2, 3-{4-[(4-chlorobenzyl)oxy]phenyl}-5-[5-methyl-1-(4-methylbenzyl)-1H-pyrazol-3-yl]-1,2,4-oxadiazole] reads ≤ 1000 nM; that for `Cc1ccc(Cn2nc(-c3nc4c(C)cc(Br)cc4[nH]3)cc2C)cc1` [Example 57, 6-bromo-4-methyl-2-[5-methyl-1-(4-methylbenzyl)-1H-pyrazol-3-yl]-1H-benzimidazole], 1000 to 10000 nM.
With `Cc1ccc(Cn2nc(-c3nc(-c4ccc(C5CCCCC5)cc4)c[nH]3)cc2C)cc1` [Example 68, 3-[4-(4-cyclohexylphenyl)-1H-imidazol-2-yl]-5-methyl-1-(4-methylbenzyl)-1H-pyrazole], the IC50 is ≤ 1000 nM.
For `Cc1ccc(Cn2nc(-c3nc(-c4ccc(Br)cc4)co3)cc2C)cc1` [Example 75, 4-(4-bromophenyl)-2-[5-methyl-1-(4-methylbenzyl)-1H-pyrazol-3-yl]-1,3-oxazole], the IC50 is ≤ 1000 nM.
As to `Cc1ccc(Cn2nc(-c3nc(-c4ccc(N5CCCCC5)cc4)no3)cc2C)cc1` [Example 12, 1-(4-{5-[5-methyl-1-(4-methylbenzyl)-1H-pyrazol-3-yl]-1,2,4-oxadiazol-3-yl}phenyl)piperidine], the IC50 was ≤ 1000 nM.
Turning to `Cc1ccc(Cn2nc(-c3nc4ccncc4[nH]3)cc2C)cc1` [Example 42, 2-[5-methyl-1-(4-methylbenzyl)-1H-pyrazol-3-yl]-3H-imidazo[4,5-c]pyridine], the IC50 lay in the range of 1000 to 10000 nM.
Turning to `Cc1ccc(Cn2nc(-c3nc4ccc(Br)cc4[nH]3)cc2C)cc1` [Example 37, 6-Bromo-2-[5-methyl-1-(4-methylbenzyl)-1H-pyrazol-3-yl]-1H-benzimidazole], the half-inhibitory concentration (IC50) is ≤ 1000 nM.
As for `Cc1ccc(Cn2nc(-c3nc4cc(-c5ccccc5)ccc4o3)cc2C)cc1` [Example 29, 2-[5-Methyl-1-(4-methylbenzyl)-1H-pyrazol-3-yl]-5-phenyl-1,3-benzoxazole], the IC50 was ≤ 1000 nM.
Regarding `Cc1ccc(Cn2nc(-c3nc4ccc(C(F)(F)F)cc4[nH]3)cc2C)cc1` [Example 44, 2-[5-methyl-1-(4-methylbenzyl)-1H-pyrazol-3-yl]-6-(trifluoromethyl)-1H-benzimidazole], the IC50 is ≤ 1000 nM.
On to `Cc1ccc(Cn2nc(-c3nc4ccc(C#N)cc4[nH]3)cc2C)cc1` [Example 54, 2-[5-methyl-1-(4-methylbenzyl)-1H-pyrazol-3-yl]-1H-benzimidazole-6-carbonitrile], for which the IC50 fell in the range of 1000 to 10000 nM.
On the same count and under the same terms, the result for `Cc1ccc(Cn2nc(-c3nc(-c4ccc(OC(C)C)cc4)no3)cc2C)cc1` [Example 20, 3-(4-Isopropoxyphenyl)-5-[5-methyl-1-(4-methylbenzyl)-1H-pyrazol-3-yl]-1,2,4-oxadiazole] reads ≤ 1000 nM.
